Test results taken from PubChem BioAssay AID248 (DTP/NCI, 2004).
Inconclusive results and toxic doses are left out. Rule as the data show it: active = T/C of 150% or more; inactive = T/C below 125%.

Tested on: L1210 leukemia ip in BDF1 mice, survival T/C
Assay: NCI In Vivo Anticancer Drug Screen. Data for tumor model L1210 Leukemia (intraperitoneal) in B6D2F1 (BDF1) mice
Conditions: endpoint: mean survival time, higher = longer survival
Method in brief: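 Read-out is survival time, reported as the treated-group measurement over the vehicle-control measurement.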

[1] = dose: 100.0 mg/kg/injection, schedule: Q04DX002 (ip), vehicle: Klucel (hydroxypropylcellulose) (HPC)
[2] = dose: 200.0 mg/kg/injection, schedule: Q04DX002 (ip), vehicle: Klucel (hydroxypropylcellulose) (HPC)
[3] = dose: 50.0 mg/kg/injection, schedule: Q01DX009 (ip), vehicle: saline
[4] = dose: 100.0 mg/kg/injection, schedule: Q01DX009 (ip), vehicle: saline
[5] = dose: 400.0 mg/kg/injection, schedule: Q04DX002 (ip), vehicle: Klucel (hydroxypropylcellulose) (HPC)
[6] = dose: 100.0 mg/kg/injection, schedule: Q01DX009 (ip), vehicle: Klucel (hydroxypropylcellulose) (HPC)
[7] = dose: 200.0 mg/kg/injection, schedule: Q01DX009 (ip), vehicle: Klucel (hydroxypropylcellulose) (HPC)
[8] = dose: 400.0 mg/kg/injection, schedule: Q01DX009 (ip), vehicle: Klucel (hydroxypropylcellulose) (HPC)
[9] = dose: 100.0 mg/kg/injection, schedule: Q04DX003 (ip), vehicle: Klucel (hydroxypropylcellulose) (HPC)
[10] = dose: 200.0 mg/kg/injection, schedule: Q04DX003 (ip), vehicle: Klucel (hydroxypropylcellulose) (HPC)
[11] = dose: 100.0 mg/kg/injection, schedule: Q01DX009 (ip), vehicle: saline with Tween-80
[12] = dose: 200.0 mg/kg/injection, schedule: Q01DX009 (ip), vehicle: saline with Tween-80
[13] = dose: 400.0 mg/kg/injection, schedule: Q01DX009 (ip), vehicle: saline with Tween-80
[14] = dose: 400.0 mg/kg/injection, schedule: Q04DX003 (ip), vehicle: Klucel (hydroxypropylcellulose) (HPC)
[15] = dose: 100.0 mg/kg/injection, schedule: Q04DX003 (ip), vehicle: saline
[16] = dose: 200.0 mg/kg/injection, schedule: Q04DX003 (ip), vehicle: saline
[17] = dose: 400.0 mg/kg/injection, schedule: Q04DX003 (ip), vehicle: saline
[18] = dose: 100.0 mg/kg/injection, schedule: Q01DX001 (ip), vehicle: carboxymethylcellulose (CMC)
[19] = dose: 200.0 mg/kg/injection, schedule: Q01DX001 (ip), vehicle: carboxymethylcellulose (CMC)
[20] = dose: 400.0 mg/kg/injection, schedule: Q01DX001 (ip), vehicle: carboxymethylcellulose (CMC)

Measured: T/C

Cc1nc(N)[nH]c(=O)c1CCCNc1ccc(CCC2(CCl)OCCO2)cc1
inactive: dose: 50.0 mg/kg/injection, schedule: Q01DX Z (ip), vehicle: carboxymethylcellulose (CMC) 98 % of control | dose: 100.0 mg/kg/injection, schedule: Q01DX Z (ip), vehicle: carboxymethylcellulose (CMC) 101 % of control | dose: 200.0 mg/kg/injection, schedule: Q01DX Z (ip), vehicle: carboxymethylcellulose (CMC) 101 % of control | dose: 400.0 mg/kg/injection, schedule: Q01DX Z (ip), vehicle: carboxymethylcellulose (CMC) 90 % of control

CCCN1CCCC(OC(=O)N(C)C)C1 (centres undefined)
inactive: [1] 86 % of control | [2] 104 % of control

CC(O)C(O)C(=O)NN (centres undefined)
inactive: [3] 91 % of control | [4] 98 % of control | dose: 200.0 mg/kg/injection, schedule: Q01DX009 (ip), vehicle: saline 98 % of control

COc1ccc(F)cc1CCl
inactive: [1] 98 % of control | [2] 98 % of control | [5] 86 % of control

Cc1ccc(C(C)O)cc1 (centres undefined)
inactive: [1] 98 % of control | [2] 98 % of control | [5] 98 % of control

Cc1cccc(SC(=O)Nc2cc([N+](=O)[O-])ccc2Cl)c1
inactive: [6] 92 % of control | [7] 98 % of control | [8] 88 % of control

Clc1ccc2sc3c(c2c1)CCNC3
inactive: dose: 12.5 mg/kg/injection, schedule: Q01DX009 (ip), vehicle: Klucel (hydroxypropylcellulose) (HPC) 94 % of control | dose: 25.0 mg/kg/injection, schedule: Q01DX009 (ip), vehicle: Klucel (hydroxypropylcellulose) (HPC) 97 % of control | dose: 25.0 mg/kg/injection, schedule: Q04DX003 (ip), vehicle: Klucel (hydroxypropylcellulose) (HPC) 97 % of control | dose: 50.0 mg/kg/injection, schedule: Q01DX009 (ip), vehicle: Klucel (hydroxypropylcellulose) (HPC) 90 % of control | [6] 101 % of control | [9] 92 % of control | [7] 95 % of control | [10] 92 % of control

[Co+2].[NH-]c1ccccc1C(=O)O.[NH-]c1ccccc1C(=O)O
inactive: [11] 94 % of control | [12] 93 % of control | [13] 86 % of control

CCOC(=O)c1cc(C(=O)OC)[nH]c(=O)c1C#N
inactive: [6] 93 % of control | [9] 92 % of control | [7] 92 % of control | [10] 92 % of control | [8] 90 % of control | [14] 88 % of control

CCOC(=O)NCC(CCN1CCCC1)(CCN1CCCC1)c1cccc2ccccc12
inactive: dose: 25.0 mg/kg/injection, schedule: Q04DX002 (ip), vehicle: saline 101 % of control | dose: 50.0 mg/kg/injection, schedule: Q04DX002 (ip), vehicle: saline 93 % of control

CCCC[P+](CO)(CCCC)CCCC
inactive: dose: 30.0 mg/kg/injection, schedule: Q01DX001 (ip), vehicle: saline 102 % of control

Nc1ccc(NS(=O)(=O)c2ccccc2)nc1
inactive: [6] 102 % of control | [9] 106 % of control | [7] 96 % of control | [10] 100 % of control | [8] 93 % of control | [14] 105 % of control

COC(=O)c1c[nH]c2ccc(Br)cc12
inactive: [15] 108 % of control | [16] 92 % of control | [17] 89 % of control

Cc1ccc(S(=O)(=O)OC2C(O)C(CO)OC2n2c(Br)c(C(N)=O)c3c(N)ncnc32)cc1 (centres undefined)
inactive: dose: 25.0 mg/kg/injection, schedule: Q01DX009 (ip), vehicle: water 100 % of control | dose: 50.0 mg/kg/injection, schedule: Q01DX009 (ip), vehicle: water 97 % of control | dose: 100.0 mg/kg/injection, schedule: Q01DX009 (ip), vehicle: water 95 % of control | dose: 200.0 mg/kg/injection, schedule: Q01DX009 (ip), vehicle: water 93 % of control

CN(C)CC(=O)c1ccc(Cl)cc1
inactive: [3] 87 % of control | [4] 102 % of control

N=C(N)SCC(O)c1ccccc1 (centres undefined)
inactive: [6] 104 % of control | [7] 95 % of control

COCc1c(C)[nH]c2ccc(N(C)C)cc2c1=O
inactive: [11] 97 % of control | [12] 103 % of control | [13] 105 % of control

O[O][Ge]([c]1ccccc1)([c]1ccccc1)[c]1ccccc1
inactive: [9] 88 % of control | [10] 91 % of control | [14] 88 % of control

O=c1[nH]c(Cc2ccccc2)c(N=Nc2ccccc2)c(=O)[nH]1
inactive: dose: 25.0 mg/kg/injection, schedule: Q01DX001 (ip), vehicle: saline with Tween-80 93 % of control | dose: 50.0 mg/kg/injection, schedule: Q01DX001 (ip), vehicle: saline with Tween-80 93 % of control | dose: 100.0 mg/kg/injection, schedule: Q01DX001 (ip), vehicle: saline with Tween-80 93 % of control

COc1cc2c(cc1OC)C(C)=NCC2
inactive: dose: 12.0 mg/kg/injection, schedule: Q01DX009 (ip), vehicle: saline 103 % of control | dose: 25.0 mg/kg/injection, schedule: Q01DX009 (ip), vehicle: saline 94 % of control | dose: 25.0 mg/kg/injection, schedule: Q04DX003 (ip), vehicle: saline 105 % of control | dose: 50.0 mg/kg/injection, schedule: Q01DX001 (ip), vehicle: saline 114 % of control | [3] 110 % of control | dose: 50.0 mg/kg/injection, schedule: Q04DX003 (ip), vehicle: saline 105 % of control | dose: 100.0 mg/kg/injection, schedule: Q01DX001 (ip), vehicle: saline 104 % of control | [15] 102 % of control

CC(=O)OCc1ccc(OC(C)=O)cn1
inactive: [18] 100 % of control | [19] 103 % of control | [20] 94 % of control

N#CCCN(NC(=O)OCc1ccccc1)C(=O)OCc1ccccc1
inactive: [18] 95 % of control | [19] 89 % of control | [20] 95 % of control

CCOC(CN=CN(C)C)OCC
inactive: [15] 94 % of control | [16] 105 % of control | [17] 97 % of control

CC(C)N1CNC(=O)C12CCN(CC1COc3ccccc3O1)CC2 (centres undefined)
inactive: dose: 100.0 mg/kg/injection, schedule: Q04DX003 (ip), vehicle: saline with Tween-80 104 % of control | dose: 200.0 mg/kg/injection, schedule: Q04DX003 (ip), vehicle: saline with Tween-80 106 % of control

CN(CCC(C#N)c1ccccc1)C(=O)c1ccccc1 (centres undefined)
inactive: dose: 75.0 mg/kg/injection, schedule: Q01DX001 (ip), vehicle: saline 98 % of control | dose: 150.0 mg/kg/injection, schedule: Q01DX001 (ip), vehicle: saline 96 % of control

O=P(Nc1ccccc1)(N1CCCCC1)N1CCCCC1
inactive: dose: 100.0 mg/kg/injection, schedule: Q04DX002 (ip), vehicle: saline with Tween-80 101 % of control | dose: 200.0 mg/kg/injection, schedule: Q04DX002 (ip), vehicle: saline with Tween-80 101 % of control | dose: 400.0 mg/kg/injection, schedule: Q04DX002 (ip), vehicle: saline with Tween-80 108 % of control

CN=C(C)c1ccc(N(C)C)cc1
inactive: [9] 101 % of control | [10] 92 % of control | [14] 97 % of control

CCN1CCC2CN(C(=N)N)CCN2C1=O (centres undefined)
inactive: [15] 101 % of control | [16] 103 % of control | [17] 116 % of control
